Laboratory results reported in patent US20100137449A1, “SUBSTITUTED 1,3-CYCLOPENTADIONE MULTI-TARGET PROTEIN KINASE MODULATORS OF CANCER, ANGIOGENESIS AND THE INFLAMMATORY PATHWAYS ASSOCIATED THEREWITH” (METAPROTEOMICS, LLC, priority 2007, published 2010).

Tests used:
Assay in all cases: KinaseProfiler Assay
PRAK(h) = molecular target: T1, PRAK(h) (Homo sapiens, UniProt Q8IW41)
T1 sequence (Q8IW41 1-473): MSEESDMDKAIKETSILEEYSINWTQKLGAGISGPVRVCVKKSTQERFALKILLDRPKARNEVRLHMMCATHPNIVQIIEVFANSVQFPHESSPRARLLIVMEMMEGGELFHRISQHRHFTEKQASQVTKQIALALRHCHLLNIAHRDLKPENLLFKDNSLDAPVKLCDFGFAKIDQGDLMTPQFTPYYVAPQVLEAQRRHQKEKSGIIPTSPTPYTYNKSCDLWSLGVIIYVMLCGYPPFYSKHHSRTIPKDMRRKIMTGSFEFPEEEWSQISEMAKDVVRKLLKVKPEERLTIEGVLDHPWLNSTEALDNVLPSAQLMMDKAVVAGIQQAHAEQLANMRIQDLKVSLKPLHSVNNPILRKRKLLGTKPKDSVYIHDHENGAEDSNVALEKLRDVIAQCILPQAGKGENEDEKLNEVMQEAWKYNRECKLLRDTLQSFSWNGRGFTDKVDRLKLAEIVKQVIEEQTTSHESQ

Rsk2(h) = Rsk2(h) (Homo sapiens, UniProt P51812)
Rsk2(h), sequence (P51812 whole entry): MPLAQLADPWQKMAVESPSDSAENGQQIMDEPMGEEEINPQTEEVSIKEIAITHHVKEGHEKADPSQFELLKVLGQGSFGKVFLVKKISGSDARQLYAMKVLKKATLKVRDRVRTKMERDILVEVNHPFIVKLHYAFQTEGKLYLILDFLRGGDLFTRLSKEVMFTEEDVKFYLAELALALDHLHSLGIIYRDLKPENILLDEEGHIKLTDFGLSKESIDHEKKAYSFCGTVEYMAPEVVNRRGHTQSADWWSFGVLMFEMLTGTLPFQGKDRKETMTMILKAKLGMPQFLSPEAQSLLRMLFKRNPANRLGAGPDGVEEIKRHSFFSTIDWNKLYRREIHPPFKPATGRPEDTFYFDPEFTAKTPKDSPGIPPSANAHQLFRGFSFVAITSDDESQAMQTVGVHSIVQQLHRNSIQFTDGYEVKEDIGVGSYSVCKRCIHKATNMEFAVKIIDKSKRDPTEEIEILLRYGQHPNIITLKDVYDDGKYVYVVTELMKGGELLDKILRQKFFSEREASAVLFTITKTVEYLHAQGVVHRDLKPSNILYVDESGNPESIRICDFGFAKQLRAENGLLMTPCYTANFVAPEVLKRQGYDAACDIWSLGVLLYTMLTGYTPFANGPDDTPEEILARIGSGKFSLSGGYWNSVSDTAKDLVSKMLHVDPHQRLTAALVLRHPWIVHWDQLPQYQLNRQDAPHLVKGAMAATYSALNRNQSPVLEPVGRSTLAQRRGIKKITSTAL

GSK3α(h) = GSK3α(h) (Homo sapiens, UniProt P49840)
GSK3α(h), sequence (P49840 whole entry): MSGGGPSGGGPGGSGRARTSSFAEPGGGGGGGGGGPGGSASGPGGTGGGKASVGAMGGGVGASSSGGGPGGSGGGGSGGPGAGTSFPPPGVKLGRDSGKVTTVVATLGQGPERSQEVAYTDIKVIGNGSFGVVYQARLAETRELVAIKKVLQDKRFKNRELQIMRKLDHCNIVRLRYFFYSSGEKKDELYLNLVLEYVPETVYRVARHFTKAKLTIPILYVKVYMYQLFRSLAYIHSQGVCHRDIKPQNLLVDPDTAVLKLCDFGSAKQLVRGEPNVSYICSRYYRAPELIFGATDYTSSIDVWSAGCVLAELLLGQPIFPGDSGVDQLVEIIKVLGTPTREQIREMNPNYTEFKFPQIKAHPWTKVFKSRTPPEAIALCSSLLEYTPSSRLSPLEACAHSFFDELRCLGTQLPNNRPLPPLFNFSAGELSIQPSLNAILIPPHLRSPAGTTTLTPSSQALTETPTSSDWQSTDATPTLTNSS

DAPK2(h) = DAPK2(h) (Homo sapiens, UniProt Q9UIK4)
DAPK2(h), sequence (Q9UIK4 whole entry): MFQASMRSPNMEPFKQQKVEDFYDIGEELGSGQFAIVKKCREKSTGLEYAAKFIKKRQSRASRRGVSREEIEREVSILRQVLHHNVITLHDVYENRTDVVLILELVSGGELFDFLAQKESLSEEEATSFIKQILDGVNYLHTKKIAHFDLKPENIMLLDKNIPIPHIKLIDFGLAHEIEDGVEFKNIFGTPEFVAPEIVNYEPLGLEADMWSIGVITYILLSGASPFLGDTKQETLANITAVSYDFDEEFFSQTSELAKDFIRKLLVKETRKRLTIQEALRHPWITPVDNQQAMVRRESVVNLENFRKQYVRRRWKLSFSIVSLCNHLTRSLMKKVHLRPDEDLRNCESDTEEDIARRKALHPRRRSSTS

Axl(h) = molecular target: T2, Axl(h) (Homo sapiens, UniProt P30530)
T2 sequence (P30530 26-894): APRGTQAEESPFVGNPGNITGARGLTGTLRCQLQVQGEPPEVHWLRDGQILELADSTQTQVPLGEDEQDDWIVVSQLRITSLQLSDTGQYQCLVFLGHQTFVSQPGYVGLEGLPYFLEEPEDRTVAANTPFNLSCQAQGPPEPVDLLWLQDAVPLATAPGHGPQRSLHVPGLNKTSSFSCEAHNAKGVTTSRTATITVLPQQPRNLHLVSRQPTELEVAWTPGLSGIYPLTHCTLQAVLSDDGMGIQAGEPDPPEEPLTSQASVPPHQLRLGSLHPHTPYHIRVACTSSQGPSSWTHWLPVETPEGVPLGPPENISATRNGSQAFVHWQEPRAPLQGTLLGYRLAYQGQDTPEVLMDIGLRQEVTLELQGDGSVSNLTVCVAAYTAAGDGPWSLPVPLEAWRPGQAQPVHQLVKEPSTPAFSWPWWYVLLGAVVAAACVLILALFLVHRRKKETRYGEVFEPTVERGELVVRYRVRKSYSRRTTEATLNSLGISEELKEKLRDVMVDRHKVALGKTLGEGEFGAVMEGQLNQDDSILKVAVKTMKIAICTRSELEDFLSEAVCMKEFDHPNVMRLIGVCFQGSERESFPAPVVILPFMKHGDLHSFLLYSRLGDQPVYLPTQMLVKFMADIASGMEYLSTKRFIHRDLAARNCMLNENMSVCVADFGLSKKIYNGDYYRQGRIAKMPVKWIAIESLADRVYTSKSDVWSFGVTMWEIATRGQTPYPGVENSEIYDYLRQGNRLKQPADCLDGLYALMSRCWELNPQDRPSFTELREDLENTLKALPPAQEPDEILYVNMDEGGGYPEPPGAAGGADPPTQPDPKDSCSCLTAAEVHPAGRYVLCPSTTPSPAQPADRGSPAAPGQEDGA

CK1(y) = molecular target: CK1(y)
GRK7(h) = molecular target: T3, GRK7(h) (Homo sapiens, UniProt Q8WTQ7)
T3 sequence (Q8WTQ7 1-553): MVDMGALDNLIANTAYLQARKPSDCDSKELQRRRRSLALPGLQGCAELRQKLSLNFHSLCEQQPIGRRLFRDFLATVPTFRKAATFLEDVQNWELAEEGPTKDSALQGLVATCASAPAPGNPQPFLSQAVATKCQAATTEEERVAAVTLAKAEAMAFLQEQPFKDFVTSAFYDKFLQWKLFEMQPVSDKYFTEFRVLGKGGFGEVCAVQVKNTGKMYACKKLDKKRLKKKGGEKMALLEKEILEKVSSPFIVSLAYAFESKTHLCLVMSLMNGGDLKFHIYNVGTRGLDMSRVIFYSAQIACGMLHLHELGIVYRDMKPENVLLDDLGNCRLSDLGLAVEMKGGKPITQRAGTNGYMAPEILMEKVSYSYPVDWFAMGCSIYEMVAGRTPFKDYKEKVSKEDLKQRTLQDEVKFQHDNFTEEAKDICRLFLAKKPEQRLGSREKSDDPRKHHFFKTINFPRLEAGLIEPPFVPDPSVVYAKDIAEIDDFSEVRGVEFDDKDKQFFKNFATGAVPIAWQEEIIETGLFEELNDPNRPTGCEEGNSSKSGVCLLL

ROCK-I(h) = ROCK-I(h) (Homo sapiens, UniProt Q13464)
ROCK-I(h), sequence (Q13464 whole entry): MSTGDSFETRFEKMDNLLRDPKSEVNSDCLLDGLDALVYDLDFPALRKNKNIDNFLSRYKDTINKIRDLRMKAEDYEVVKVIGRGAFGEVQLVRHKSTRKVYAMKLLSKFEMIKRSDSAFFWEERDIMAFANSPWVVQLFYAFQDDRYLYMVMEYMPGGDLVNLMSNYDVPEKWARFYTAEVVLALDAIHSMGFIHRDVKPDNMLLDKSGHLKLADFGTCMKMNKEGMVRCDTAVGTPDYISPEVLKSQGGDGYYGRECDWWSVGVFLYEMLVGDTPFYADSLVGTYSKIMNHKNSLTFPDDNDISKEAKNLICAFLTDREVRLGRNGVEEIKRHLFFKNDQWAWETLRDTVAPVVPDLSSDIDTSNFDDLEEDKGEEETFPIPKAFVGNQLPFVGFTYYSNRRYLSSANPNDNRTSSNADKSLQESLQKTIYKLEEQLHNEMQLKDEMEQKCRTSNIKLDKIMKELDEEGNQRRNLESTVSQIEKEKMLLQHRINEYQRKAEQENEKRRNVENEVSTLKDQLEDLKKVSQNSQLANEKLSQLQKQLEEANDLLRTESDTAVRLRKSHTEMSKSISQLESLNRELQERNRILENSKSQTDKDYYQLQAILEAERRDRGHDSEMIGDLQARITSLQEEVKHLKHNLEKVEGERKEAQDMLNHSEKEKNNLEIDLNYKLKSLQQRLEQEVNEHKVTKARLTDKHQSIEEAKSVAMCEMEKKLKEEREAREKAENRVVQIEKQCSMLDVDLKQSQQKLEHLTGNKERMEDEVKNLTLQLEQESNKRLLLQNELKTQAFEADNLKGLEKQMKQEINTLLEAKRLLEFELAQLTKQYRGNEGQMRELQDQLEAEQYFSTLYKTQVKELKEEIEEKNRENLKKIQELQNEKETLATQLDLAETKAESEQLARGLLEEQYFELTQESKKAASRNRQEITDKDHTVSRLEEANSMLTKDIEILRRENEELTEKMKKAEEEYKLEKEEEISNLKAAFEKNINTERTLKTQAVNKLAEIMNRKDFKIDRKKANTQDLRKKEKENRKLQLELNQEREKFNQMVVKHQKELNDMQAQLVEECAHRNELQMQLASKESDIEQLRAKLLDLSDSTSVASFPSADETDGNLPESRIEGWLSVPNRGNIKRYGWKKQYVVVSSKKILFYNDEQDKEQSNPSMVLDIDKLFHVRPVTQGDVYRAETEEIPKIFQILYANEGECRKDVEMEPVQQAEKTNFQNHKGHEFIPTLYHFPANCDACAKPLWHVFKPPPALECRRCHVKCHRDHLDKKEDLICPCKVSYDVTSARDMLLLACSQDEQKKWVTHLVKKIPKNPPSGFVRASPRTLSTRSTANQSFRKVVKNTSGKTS

CC(C)CCC(=O)[C@]1(O)C(O)=C(C(=O)C(C)C)C(=O)[C@H]1CCC(C)C [TH2, tetrahydroiso-cohumulone]
kinase inhibition (PRAK(h); 1 μg/ml): 66% of control
kinase inhibition (PRAK(h); 5 μg/ml): 45% of control
kinase inhibition (PRAK(h); 25 μg/ml): 19% of control
kinase inhibition (PRAK(h); 50 μg/ml): 24% of control
kinase inhibition (PRAK(h); 100 μg/ml): 19% of control
kinase inhibition (Rsk2(h); 1 μg/ml): 102% of control
kinase inhibition (Rsk2(h); 5 μg/ml): 100% of control
kinase inhibition (Rsk2(h); 25 μg/ml): 81% of control
kinase inhibition (Rsk2(h); 50 μg/ml): 43% of control
kinase inhibition (Rsk2(h); 100 μg/ml): 32% of control
kinase inhibition (GSK3α(h); 1 μg/ml): 94% of control
kinase inhibition (GSK3α(h); 5 μg/ml): 92% of control
kinase inhibition (GSK3α(h); 25 μg/ml): 61% of control
kinase inhibition (GSK3α(h); 50 μg/ml): 51% of control
kinase inhibition (GSK3α(h); 100 μg/ml): 43% of control
kinase inhibition (DAPK2(h); 1 μg/ml): 61% of control
kinase inhibition (DAPK2(h); 5 μg/ml): 56% of control
kinase inhibition (DAPK2(h); 25 μg/ml): 55% of control
kinase inhibition (DAPK2(h); 50 μg/ml): 52% of control
kinase inhibition (DAPK2(h); 100 μg/ml): 49% of control
kinase inhibition (Axl(h); 1 μg/ml): 106% of control
kinase inhibition (Axl(h); 5 μg/ml): 110% of control
kinase inhibition (Axl(h); 25 μg/ml): 100% of control
kinase inhibition (Axl(h); 50 μg/ml): 86% of control
kinase inhibition (Axl(h); 100 μg/ml): 65% of control
kinase inhibition (CK1(y); 25 μg/ml): 110% of control
kinase inhibition (CK1(y); 50 μg/ml): 110% of control
kinase inhibition (CK1(y); 100 μg/ml): 100% of control
kinase inhibition (GRK7(h); 1 μg/ml): 110% of control
kinase inhibition (GRK7(h); 5 μg/ml): 95% of control
kinase inhibition (GRK7(h); 25 μg/ml): 102% of control
kinase inhibition (GRK7(h); 50 μg/ml): 91% of control
kinase inhibition (GRK7(h); 100 μg/ml): 99% of control
kinase inhibition (ROCK-I(h); 1 μg/ml): 110% of control
kinase inhibition (ROCK-I(h); 5 μg/ml): 111% of control
kinase inhibition (ROCK-I(h); 25 μg/ml): 110% of control
kinase inhibition (ROCK-I(h); 50 μg/ml): 100% of control
kinase inhibition (ROCK-I(h); 100 μg/ml): 88% of control
